{"source": "patent US20100222334A1", "about": "(priority 2007, published 2010)", "key": {"[1]": {"conditions": "human, in vivo", "method": "In order to determine the relative bioavailability, an open-label, single dose, two-period, crossover study is conducted in 24 healthy subjects."}, "[2]": {"conditions": "administered as immediate release tablet formulation (Diovan); cited from earlier work"}, "[3]": {"assay": "Bioavailability of new 80 mg valsartan pediatric tablet relative to 80 mg commercial tablet, single-dose crossover", "conditions": "in the same study", "method": "The study is conducted in 24 healthy subjects using an open-label, single-dose, two period, randomized, crossover study design."}}, "data": [{"smiles": "CCCCC(=O)N(Cc1ccc(-c2ccccc2-c2nnn[nH]2)cc1)[C@H](C(=O)O)C(C)C", "note": "[Valsartan, (S)—N-(1-carboxy-2-methylprop-1-yl)-N-pentanoyl-N-[2′-(1H-tetrazol-5-yl)biphenyl-4-ylmethyl]amine]", "values": [{"measurement": "intersubject variability (CV %) for the Cmax and AUCτ", "setting": "[1]", "value": "24-40%"}, {"measurement": "bioavailability", "setting": "[2]", "value": "around 30%"}, {"measurement": "variability of valsartan PK", "setting": "[3]", "value": "30-50%"}]}]}
